In ChEMBL document CHEMBL1156031, “Tetrahydrocarbazole-based serotonin reuptake inhibitor/dopamine D2 partial agonists for the potential treatment of schizophrenia” (Bioorg Med Chem Lett, 2009):
One block for each molecule: values may come before it. Calls of active or inactive are those of the source. The rule behind the calls is not given here.

How the values were obtained:
[1] = biological target: Sodium-dependent serotonin transporter (Homo sapiens, UniProt P31645); assay: biochemical; assay type: cell-based, HEK293
Sodium-dependent serotonin transporter, sequence (P31645 whole entry): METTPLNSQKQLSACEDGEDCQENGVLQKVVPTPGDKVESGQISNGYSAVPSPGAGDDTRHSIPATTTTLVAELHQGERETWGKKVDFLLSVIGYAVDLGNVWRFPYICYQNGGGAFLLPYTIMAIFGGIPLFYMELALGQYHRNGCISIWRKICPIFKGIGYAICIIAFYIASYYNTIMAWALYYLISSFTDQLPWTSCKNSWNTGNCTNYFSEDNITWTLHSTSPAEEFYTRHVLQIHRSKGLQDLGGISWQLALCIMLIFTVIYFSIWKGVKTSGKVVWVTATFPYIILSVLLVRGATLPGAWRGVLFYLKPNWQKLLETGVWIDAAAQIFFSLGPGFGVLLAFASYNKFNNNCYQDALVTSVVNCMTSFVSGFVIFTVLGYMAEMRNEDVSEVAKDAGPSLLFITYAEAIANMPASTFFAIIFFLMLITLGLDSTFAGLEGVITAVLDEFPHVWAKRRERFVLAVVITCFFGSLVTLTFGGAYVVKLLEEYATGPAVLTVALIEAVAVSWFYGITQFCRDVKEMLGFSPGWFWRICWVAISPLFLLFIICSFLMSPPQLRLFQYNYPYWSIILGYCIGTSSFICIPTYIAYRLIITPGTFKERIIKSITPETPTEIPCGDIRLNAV

D(2) dopamine receptor [2] = biological target: T1, D(2) dopamine receptor (Homo sapiens, UniProt P14416); assay: Displacement of [3H]spiperone from D2 receptor
T1 sequence (P14416 whole entry): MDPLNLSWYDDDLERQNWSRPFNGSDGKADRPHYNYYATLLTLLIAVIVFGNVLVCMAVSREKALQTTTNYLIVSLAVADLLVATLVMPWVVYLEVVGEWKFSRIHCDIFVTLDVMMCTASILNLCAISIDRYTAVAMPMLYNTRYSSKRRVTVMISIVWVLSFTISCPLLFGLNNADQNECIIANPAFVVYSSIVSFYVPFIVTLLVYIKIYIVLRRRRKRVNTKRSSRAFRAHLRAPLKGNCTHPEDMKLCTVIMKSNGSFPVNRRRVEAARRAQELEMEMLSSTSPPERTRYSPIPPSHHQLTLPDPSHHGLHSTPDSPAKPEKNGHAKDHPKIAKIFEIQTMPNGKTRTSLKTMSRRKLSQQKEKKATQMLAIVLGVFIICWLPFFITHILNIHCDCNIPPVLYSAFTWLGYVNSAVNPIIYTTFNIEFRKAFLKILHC

[3] = biological target: 5-hydroxytryptamine receptor 2A (Homo sapiens, UniProt P28223); assay: Agonist activity at 5-HT2A receptor; assay type: functional
5-hydroxytryptamine receptor 2A, sequence (P28223 whole entry): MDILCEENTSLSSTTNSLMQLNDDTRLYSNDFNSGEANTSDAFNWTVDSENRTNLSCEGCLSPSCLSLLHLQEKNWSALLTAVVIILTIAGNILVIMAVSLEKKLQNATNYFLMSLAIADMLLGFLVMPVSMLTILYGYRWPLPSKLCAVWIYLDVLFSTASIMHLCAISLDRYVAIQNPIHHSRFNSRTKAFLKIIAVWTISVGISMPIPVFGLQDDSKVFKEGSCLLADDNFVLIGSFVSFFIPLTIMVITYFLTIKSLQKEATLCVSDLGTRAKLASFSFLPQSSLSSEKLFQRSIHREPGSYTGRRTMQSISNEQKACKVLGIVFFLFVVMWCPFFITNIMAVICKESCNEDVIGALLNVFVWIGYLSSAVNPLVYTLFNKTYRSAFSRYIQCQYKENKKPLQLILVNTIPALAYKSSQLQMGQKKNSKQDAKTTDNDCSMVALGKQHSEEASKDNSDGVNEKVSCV

Mus musculus [4] = assay: Inhibition of catalepsy in mouse at 10 mg/kg, ip after 90 mins; assay type: functional
[5] = biological target: T2, 5-hydroxytryptamine receptor 2B (Homo sapiens, UniProt P41595); assay: Binding affinity to 5-HT2B receptor
T2 sequence (P41595 whole entry): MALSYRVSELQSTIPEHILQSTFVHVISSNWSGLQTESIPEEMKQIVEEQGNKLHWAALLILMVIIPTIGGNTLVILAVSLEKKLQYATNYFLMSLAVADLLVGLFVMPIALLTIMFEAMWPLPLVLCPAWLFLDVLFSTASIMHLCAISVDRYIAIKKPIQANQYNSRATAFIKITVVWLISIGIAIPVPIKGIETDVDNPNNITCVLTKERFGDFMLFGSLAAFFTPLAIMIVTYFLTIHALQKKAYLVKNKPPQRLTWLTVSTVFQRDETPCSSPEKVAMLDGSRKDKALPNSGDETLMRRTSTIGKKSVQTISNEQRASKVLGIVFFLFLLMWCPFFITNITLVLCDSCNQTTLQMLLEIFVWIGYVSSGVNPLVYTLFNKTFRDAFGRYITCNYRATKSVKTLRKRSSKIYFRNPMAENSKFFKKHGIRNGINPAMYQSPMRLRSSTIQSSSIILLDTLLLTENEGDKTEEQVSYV

Mus musculus [6] = assay: Antipsychotic activity in ip dosed AIC mouse model assessed as stereotype effects; assay type: functional
Mus musculus [7] = assay: Antipsychotic activity in ip dosed AIC mouse model assessed as climbing response; assay type: functional
[8] = biological target: T3, Adrenergic receptor alpha-1 (Rattus norvegicus, UniProt P15823+P23944+P43140); assay: Binding affinity to alpha1 adrenergic receptor in rat brain membrane by radioligand binding assay; assay type: cell membranes
T3 sequence (P15823 whole entry): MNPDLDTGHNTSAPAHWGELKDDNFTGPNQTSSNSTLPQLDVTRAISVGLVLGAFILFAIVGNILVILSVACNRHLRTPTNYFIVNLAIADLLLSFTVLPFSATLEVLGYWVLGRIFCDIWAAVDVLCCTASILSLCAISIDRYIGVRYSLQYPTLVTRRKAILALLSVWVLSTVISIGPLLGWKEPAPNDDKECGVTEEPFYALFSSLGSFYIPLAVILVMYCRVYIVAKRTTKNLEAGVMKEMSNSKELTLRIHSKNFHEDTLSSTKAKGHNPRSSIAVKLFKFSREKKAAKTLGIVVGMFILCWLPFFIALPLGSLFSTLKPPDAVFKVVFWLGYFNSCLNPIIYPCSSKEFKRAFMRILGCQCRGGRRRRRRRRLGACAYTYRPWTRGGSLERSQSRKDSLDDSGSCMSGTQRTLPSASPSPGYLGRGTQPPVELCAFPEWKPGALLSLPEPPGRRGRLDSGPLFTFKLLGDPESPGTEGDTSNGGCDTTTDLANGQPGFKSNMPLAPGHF
T3 sequence (P23944 whole entry): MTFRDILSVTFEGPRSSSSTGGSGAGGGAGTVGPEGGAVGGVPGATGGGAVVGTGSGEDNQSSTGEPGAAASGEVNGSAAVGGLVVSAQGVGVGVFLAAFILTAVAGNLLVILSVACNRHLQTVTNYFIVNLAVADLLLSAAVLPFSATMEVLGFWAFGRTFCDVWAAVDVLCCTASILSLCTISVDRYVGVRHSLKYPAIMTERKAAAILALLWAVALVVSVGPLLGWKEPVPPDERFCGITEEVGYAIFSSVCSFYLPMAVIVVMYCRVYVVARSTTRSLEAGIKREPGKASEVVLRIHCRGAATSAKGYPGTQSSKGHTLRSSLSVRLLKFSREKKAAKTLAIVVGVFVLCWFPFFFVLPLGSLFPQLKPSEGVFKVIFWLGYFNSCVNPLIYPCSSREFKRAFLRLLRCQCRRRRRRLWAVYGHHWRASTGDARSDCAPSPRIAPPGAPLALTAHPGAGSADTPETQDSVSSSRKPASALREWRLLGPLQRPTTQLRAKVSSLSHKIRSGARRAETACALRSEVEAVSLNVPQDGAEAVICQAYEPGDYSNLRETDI
T3 sequence (P43140 whole entry): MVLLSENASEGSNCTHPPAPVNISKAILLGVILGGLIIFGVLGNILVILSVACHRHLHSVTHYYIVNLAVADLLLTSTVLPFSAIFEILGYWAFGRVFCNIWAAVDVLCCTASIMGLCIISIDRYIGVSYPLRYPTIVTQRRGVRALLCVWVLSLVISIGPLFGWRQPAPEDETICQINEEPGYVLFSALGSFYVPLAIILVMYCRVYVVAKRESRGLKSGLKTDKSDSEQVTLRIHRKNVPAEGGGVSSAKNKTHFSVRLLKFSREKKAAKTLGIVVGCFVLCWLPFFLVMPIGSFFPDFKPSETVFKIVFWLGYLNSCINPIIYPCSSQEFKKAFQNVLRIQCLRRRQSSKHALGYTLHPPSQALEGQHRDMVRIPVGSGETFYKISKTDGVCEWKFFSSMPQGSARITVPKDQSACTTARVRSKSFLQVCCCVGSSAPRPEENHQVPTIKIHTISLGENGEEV

[9] = biological target: T2, 5-hydroxytryptamine receptor 2B; assay: Agonist activity at human recombinant 5-HT2B receptor expressed in CHO-K1 cells assessed as increase in intracellular calcium level by FLIPR assay; assay type: functional, cell-based
D(2) dopamine receptor [10] = biological target: T1, D(2) dopamine receptor; assay: Ratio of drug to quinpirole for agonist activity at D2 receptor assessed as change in intracellular cAMP level by cell based assay; assay type: functional
[11] = Selectivity of Ki for human serotonin transporter to Ki for rat alpha1 adrenergic receptor
Rattus norvegicus [12] = assay: Behavioral effect in CAR rat model assessed as reduction of avoidance response at 10 mg/kg, ip; assay type: functional, organism-based; design: dose 10 mg/kg
Rattus norvegicus [13] = assay: Behavioral effect in CAR rat model assessed as reduction of avoidance response at 10 mg/kg, po; assay type: functional, organism-based; design: dose 10 mg/kg
Rattus norvegicus [14] = assay: Behavioral effect in CAR rat model assessed as increase in escape response at 10 mg/kg, ip; assay type: functional, organism-based; design: dose 10 mg/kg
Rattus norvegicus [15] = assay: Behavioral effect in CAR rat model assessed as increase in escape response at 10 mg/kg, po; assay type: functional, organism-based; design: dose 10 mg/kg

Ki [1]: 460 nM
Ki (D(2) dopamine receptor [2]): 12 nM
SMILES: O=c1[nH]c2cccc(N3C[C@H]4C[C@@H]3CN4CC3CCc4[nH]c5ccc(F)cc5c4C3)c2o1 (stereo not given in full) [listing 1 of 3 here]

Ki [1]: 24 nM
Ki (D(2) dopamine receptor [2]): 24 nM
SMILES: O=C1Cc2c(ccc3c2OC[C@H](CNCCC2CCc4[nH]c5ccc(F)cc5c4C2)O3)N1 (stereo not given in full) [listing 1 of 2 here]

Ki [1]: 4700 nM
Ki (D(2) dopamine receptor [2]): 15 nM
SMILES: O=C1Cc2c(cccc2N2CCN(CCC3CCc4[nH]c5ccc(F)cc5c4C3)CC2)N1 (stereo not given)

Ki [1]: 1200 nM
Ki (D(2) dopamine receptor [2]): 310 nM
SMILES: O=c1[nH]c2cccc(OC3CCN(CCC4CCc5[nH]c6ccc(F)cc6c5C4)CC3)c2o1 (stereo not given)

Ki [1]: 25 nM
Ki (D(2) dopamine receptor [2]): 100 nM
SMILES: O=C1Cc2c(ccc3c2OC[C@H](CNCC2CCc4c([nH]c5ccc(F)cc45)C2)O3)N1 (stereo not given in full)

Ki [1]: 5200 nM
Ki (D(2) dopamine receptor [2]): 36 nM
SMILES: O=C1Cc2c(ccc3c2OC[C@H](CNCCC2CCc4c([nH]c5ccc(F)cc45)C2)O3)N1 (stereo not given in full)

Ki [1]: 41 nM
Ki (D(2) dopamine receptor [2]): 120 nM
SMILES: O=c1[nH]c2cccc(CN3CCN(CC4CCc5[nH]c6ccc(F)cc6c5C4)CC3)c2o1 (stereo not given)

Ki [1]: 8 nM
Ki [3]: 1800 nM
Ki [5]: 165 nM
Ki (D(2) dopamine receptor [2]): 14 nM
Ki [8]: 65 nM
SMILES: O=c1[nH]c2cccc(N3C[C@H]4C[C@@H]3CN4CC3CCc4[nH]c5ccc(F)cc5c4C3)c2o1 (stereo not given in full) [listing 2 of 3 here]
inhibition in vivo at 10 mg/kg (Mus musculus [4]; 1.5 h, route intraperitoneal): 48%
ED50 (Mus musculus [6]): > 5 mg/kg
ED50 (Mus musculus [7]): 2.3 mg/kg

Ki [1]: 62 nM
Ki (D(2) dopamine receptor [2]): 220 nM
SMILES: O=c1[nH]c2cccc(N3CCN(CC4CCc5c([nH]c6ccc(F)cc56)C4)CC3)c2o1 (stereo not given)

Activity [9]: inactive
Ki [1]: 0.4 nM
Ratio (D(2) dopamine receptor [10]): < 0.1
Ki [5]: 110 nM
Ki (D(2) dopamine receptor [2]): 28 nM
Ki [8]: 130 nM
SMILES: O=c1[nH]c2cccc(OCC3CCN(CC4CCc5[nH]c6ccc(F)cc6c5C4)CC3)c2o1 (stereo not given)

Ki [1]: 3 nM
Ki (D(2) dopamine receptor [2]): 140 nM
SMILES: O=c1[nH]c2cccc(OC3CCN(CC4CCc5[nH]c6ccc(F)cc6c5C4)CC3)c2o1 (stereo not given)

Ki [1]: 62 nM
Ki (D(2) dopamine receptor [2]): 50 nM
SMILES: O=c1[nH]c2cccc(N3CCN(CCCC4CCc5c([nH]c6ccc(F)cc56)C4)CC3)c2o1 (stereo not given)

Ki [1]: 21 nM
Ki (D(2) dopamine receptor [2]): 24 nM
SMILES: O=C1Cc2c(ccc3c2OC[C@H](CNCCC2CCc4[nH]c5ccc(F)cc5c4C2)O3)N1 (stereo not given in full) [listing 2 of 2 here]

Ki [1]: 10 nM
Ki (D(2) dopamine receptor [2]): 720 nM
SMILES: O=c1[nH]c2cccc(OCC3CCN(CCC4CCc5[nH]c6ccc(F)cc6c5C4)CC3)c2o1 (stereo not given)

Ki [1]: 1140 nM
Ki (D(2) dopamine receptor [2]): 15 nM
SMILES: O=C1Cc2c(cccc2N2CCN(CC3CCc4[nH]c5ccc(F)cc5c4C3)CC2)N1 (stereo not given)

Activity [9]: inactive
Ratio Ki [11]: 10
Ratio (D(2) dopamine receptor [10]): 0.3
SMILES: O=c1[nH]c2cccc(N3C[C@H]4C[C@@H]3CN4CC3CCc4[nH]c5ccc(F)cc5c4C3)c2o1 (stereo not given in full) [listing 3 of 3 here]

Ki [1]: 7 nM
Ki [3]: 2 nM
Ki [5]: 130 nM
Ki (D(2) dopamine receptor [2]): 3 nM
Ki [8]: 0.5 nM
SMILES: O=C1Cc2c(ccc3c2OC[C@H](CNCC2CCc4[nH]c5ccc(F)cc5c4C2)O3)N1 (single isomer, unassigned) [listing 1 of 2 here]

Activity [9]: inactive
Ratio Ki [11]: 10
Ratio (D(2) dopamine receptor [10]): 0.3
SMILES: O=C1Cc2c(ccc3c2OC[C@H](CNCC2CCc4[nH]c5ccc(F)cc5c4C2)O3)N1 (single isomer, unassigned) [listing 2 of 2 here]

Ki [1]: 32 nM
Ki (D(2) dopamine receptor [2]): 60 nM
SMILES: O=c1[nH]c2cccc(N3CCN(CC4CCc5[nH]c6ccc(F)cc6c5C4)CC3)c2o1 (single isomer, unassigned; 30)

Ki [1]: 22 nM
Ki [3]: 130 nM
Ki [5]: 680 nM
Ki (D(2) dopamine receptor [2]): 17 nM
Ki [8]: 220 nM
SMILES: O=c1[nH]c2cccc(N3CCN(CC4CCc5[nH]c6ccc(F)cc6c5C4)CC3)c2o1 (single isomer, unassigned; 31) [listing 1 of 2 here]
ED50 (Mus musculus [6]): > 1 mg/kg
ED50 (Mus musculus [7]): 0.5 mg/kg

Activity [9]: inactive
Ratio (D(2) dopamine receptor [10]): 0.6
SMILES: O=c1[nH]c2cccc(N3CCN(CC4CCc5[nH]c6ccc(F)cc6c5C4)CC3)c2o1 (single isomer, unassigned; 31) [listing 2 of 2 here]
Activity (Rattus norvegicus [12]): Active
Activity (Rattus norvegicus [13]): Active
Activity (Mus musculus [4]): inactive
Activity (Rattus norvegicus [14]): Active
Activity (Rattus norvegicus [15]): Active

Ki [1]: 15 nM
Ki [3]: 6 nM
Ki [5]: 610 nM
Ki (D(2) dopamine receptor [2]): 50 nM
Ki [8]: 54 nM
SMILES: O=C1Cc2c(ccc3c2OC[C@H](CNCCCC2CCc4c([nH]c5ccc(F)cc45)C2)O3)N1 (stereo in doubt; 22) [listing 1 of 2 here]

Activity [9]: inactive
Ratio Ki [11]: 10
Ratio (D(2) dopamine receptor [10]): 0.3
SMILES: O=C1Cc2c(ccc3c2OC[C@H](CNCCCC2CCc4c([nH]c5ccc(F)cc45)C2)O3)N1 (stereo in doubt; 22) [listing 2 of 2 here]

Ki [1]: 4 nM
Ki [5]: 400 nM
Ki (D(2) dopamine receptor [2]): 45 nM
Ki [8]: 22 nM
SMILES: O=C1Cc2c(ccc3c2OC[C@H](CNCCCC2CCc4c([nH]c5ccc(F)cc45)C2)O3)N1 (stereo in doubt; 23) [listing 1 of 2 here]

Activity [9]: inactive
Ratio Ki [11]: 10
Ratio (D(2) dopamine receptor [10]): 0.3
SMILES: O=C1Cc2c(ccc3c2OC[C@H](CNCCCC2CCc4c([nH]c5ccc(F)cc45)C2)O3)N1 (stereo in doubt; 23) [listing 2 of 2 here]

Ki [1]: 1 nM
Ki [3]: 2 nM
Ki [5]: 6 nM
Ki (D(2) dopamine receptor [2]): 3 nM
Ki [8]: 0.72 nM
SMILES: O=C1Cc2c(ccc3c2OC[C@H](CNCC2CCc4[nH]c5ccc(F)cc5c4C2)O3)N1 (stereo in doubt; 25) [listing 1 of 2 here]

Activity [9]: inactive
Ratio Ki [11]: 10
Ratio (D(2) dopamine receptor [10]): 0.4
SMILES: O=C1Cc2c(ccc3c2OC[C@H](CNCC2CCc4[nH]c5ccc(F)cc5c4C2)O3)N1 (stereo in doubt; 25) [listing 2 of 2 here]
